These results are taken from US20120322060A1, “DIAGNOSIS AND MONITORING TREATMENT OF PSYCHIATRIC DISEASES WITH SPADIN AND RELATED METHODS” (CENTRE NATIONAL DE LE RECHERCHE SCIENTIFIQUE - CNRS -, priority 2011, published 2012).

Entries after “also recorded” stand apart in the source; their conditions may differ. No end group written: not given here.

Assay [1] concerns the target T1, TREK-1 (Mus musculus, UniProt P97438).
T1 sequence (P97438 1-426): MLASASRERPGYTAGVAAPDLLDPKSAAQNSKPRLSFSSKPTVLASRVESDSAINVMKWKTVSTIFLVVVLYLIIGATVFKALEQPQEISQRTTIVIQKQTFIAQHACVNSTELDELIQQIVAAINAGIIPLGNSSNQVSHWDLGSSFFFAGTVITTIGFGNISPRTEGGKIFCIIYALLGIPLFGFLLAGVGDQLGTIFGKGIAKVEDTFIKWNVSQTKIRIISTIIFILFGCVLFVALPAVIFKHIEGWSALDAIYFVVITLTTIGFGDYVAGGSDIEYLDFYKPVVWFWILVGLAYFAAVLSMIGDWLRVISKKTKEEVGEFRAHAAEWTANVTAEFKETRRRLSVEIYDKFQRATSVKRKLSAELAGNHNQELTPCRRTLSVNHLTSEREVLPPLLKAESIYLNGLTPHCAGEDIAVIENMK
As to the kind of experiment: Whole-cell patch-clamp on TREK-1 transfected COS-7 cells. It counts as cell-based. Also on record: GFP; expressed in transfected cells; host or cells: COS-7 (DEAE-dextran transfection). The conditions noted are these: after 90 sec of application. The method, then:
All electrophysiological experiments were done on COS-7 cells seeded at a density of 20,000 cells/35-mm dish 24 h before transfection. Cells were transfected by the classical DEAE-dextran method with TREK-1-GFP plasmids (0.1 μg/μL). Cells were visualized 48-72 h after transfection using fluorescence.
The whole-cell patch-clamp technique was used to evaluate TREK-1 potassium channel current by using a RK 400 patch-clamp amplifier (Axon Instruments, U.S.A.), as previously described. Currents were lowpass filtered at 3 kHz, digitized at 10 kHz using a 12-bit analog-to-digital converter. […] The bath solution contained (in mM): 150 NaCl, 5 KCl, 3 MgCl2, 1 CaCl2, and 10 HEPES, adjusted to pH 7.4 with NaOH; the patch pipette solution contained (in mM): 155 KCl, 3 MgCl2, 5 EGTA, and 10 HEPES, adjusted to pH 7.2 with KOH. Cells were clamped at −80 mV and voltage changes were either applied by ramp (from −100 to 50 mV, 1 s in duration) or by step (from −100 to 40 mV, 1.5 s in duration). Cells were continuously superfused with a microperfusion system. The pipette capacitance was not subtracted from total membrane capacitance and there was no leak substraction. All experiments were done at room temperature (21° C. to 22° C.) and in the presence of a cocktail of potassium channel inhibitors (K^+ blockers: 10 mM tetraethyl ammonium (TEA), 3 mM 4-aminopyridine (4-AP), 50 nM charybdotoxin, 10 μM glibenclamide, 100 nM apamin).
Pclamp software was used to analyze currents recorded in the whole-cell mode measured at 0 mV. Results are expressed as means±SD. To obtain the IC50 value for dose-dependent inhibition, experimental data were fitted with a standard sigmoidal function.
Background: In patch-clamp work, channel activity is measured electrically.

Assay [2] deals with T1, TREK-1. Briefly: Competition with 125I-spadin for binding to TREK-1 transfected COS-7 cell homogenates. The conditions noted are these: TREK-1 transfected COS-7 homogenates, read-out: affinity for TREK-1. More on the design: expressed in transfected cells; host or cells: COS-7 (DEAE-dextran transfection).
Protocol: Experiments were performed using COS-7 cells (10^6 cells per diameter 100 dish) transfected with TREK-1 (2 μg/dish) in the presence or in the absence of NTSR3/sortilin (2 μg/dish) using the DEAE-dextran protocol.
Incubations were terminated by addition of 2 ml of ice-cold binding buffer followed by filtration through cellulose acetate filters (Sartorius, Göttingen, Germany) and washing twice with 2 ml of ice-cold buffer. Radioactivity on filters was counted with a gamma-counter.
For assay [3], the system named is mice. Briefly: Novelty-Suppressed Feeding test (NSF). The conditions noted are these: 4 days; spadin i.v. 10^-6 M, fluoxetine i.p. 3 mg/kg. It counts as in vivo, mouse. The method, then:
NSF paradigm is a conflict test that elicits competing motivations: the drive to eat and the fear of venturing into the center of a bright arena. Latency to begin eating is used as an index of anxiety- and depression-like behavior. After 4 day treatment (saline or spadin, i.v.) and 24 hours food-deprivation, mice were presented with a food pellet placed in the center of a brightly plastic box (50×50×20 cm). Latency to begin eating was measured as previously described.

Assay [4] deals with mice. As to the kind of experiment: Corticosterone assay after tube restraint stress. The format is in vivo, mouse. Conditions: 30 min after 10 min tube restraint; spadin i.p. 10^-5 M. The method, then: Mice were individually housed for at least 12 hours before blood sample collection. Serum samples, collected in the morning were obtained by retroorbital puncture before and 30 min after the end of a 10-min tube restraint. Levels of corticosterone were measured by radioimmunoassay using a commercially available kit (MP Biomedicals).

For assay [5], the target named is T1, TREK-1. Briefly: Whole-cell patch-clamp on CA3 pyramidal neurons in hippocampus brain slices. The format is cell-based. More on the design: a cellular network that endogenously expresses both TREK-1 and NTSR3/Sortilin; from tissue; host or cells: mouse hippocampal brain slices, CA3 pyramidal neurons. The conditions noted are these: wild-type CA3 neurons, no aa.

The subject of assay [6] is dentate gyrus of the mouse hippocampus. As to the kind of experiment: Hippocampal neurogenesis (BrdU / DCX labeling). It counts as in vivo. The protocol:
Twenty-four hours after the injection of BrdU (120 mg per kg of body weight in a 300 μl bolus), mice were euthanized and transcardially perfused with 4% cold paraformaldehyde. Serial sections of the brains were cut (40 μm) throughout the entire hippocampus on a vibratome (Leica). Every sixth section throughout the hippocampus was processed for BrdU or doublecortin (DCX) immunohistochemistry, as previously described. For each immunodetection, slides were first incubated overnight at 4° C. with a mouse monoclonal anti-BrdU antibody (1:200; Becton-Dickinson) or a goat anti-DCX (1:400, Santa Cruz Laboratories). For chromogenic immunodetection, sections were then incubated for 1 hour in biotin-conjugated species-specific secondary antibodies (1:100; Vector Laboratories) followed by a peroxidase-avidin complex solution according to the manufacturer's protocol. The peroxidase activity of immune complexes was visualized with DAB staining using the VectaStain ABC kit (Vector Laboratories). For fluorescent double-labeling, performed to determine the cell phenotype, sections were incubated overnight at 4° C. with anti-sheep BrdU (1:200, Interchim), anti-goat DCX (1:200, Santa Cruz Laboratories), or an anti-GFAP (Glial Fibrillary acidic protein, marker for astrocytes, 1:250, Dako). […] All BrdU-labeled cells in the granular cell layer and subgranular zone (SGZ) were counted in each section (n=10 and 5 mice per group) at 400× and 1000× magnification under a light microscope (Olympus) by an experimenter blinded to the study code. The total number of BrdU-positive cells per section was multiplied by 6 to obtain the total number of cells per dentate gyrus. The counting of BrdU/DCX labeled cells was performed using a Laser Scanning Confocal Microscope (TCS SP, Leica) equipped with a DMIRBE inverted microscope.

Assay [7] relates to mice. Briefly: Porsolt Forced Swim Test (FST) in mice. The format is in vivo, mouse. The protocol: Mice (Janvier, France) were placed individually in cylinders (height: 30 cm, diameter: 15 cm) filled with 12 cm deep water (temperature: 22±1° C.) for 6 min. The total period of immobility was recorded during the last 4 min.
The test system of assay [8] is mice. Briefly: Tail Suspension Test (TST). The format is in vivo, mouse. The conditions noted are these: subchronic, 4 days; spadin i.v. 10^-6 M, fluoxetine 3 mg/kg. The protocol:
Mice were suspended by the tail. […] The immobility time was recorded during a 6 min test session.

In assay [9] the target is T1, TREK-1. Briefly: Whole-cell patch-clamp on cultured pyramidal neurons from hippocampus. The format is cell-based. More on the design: endogenous in cells; host or cells: primary hippocampal pyramidal neurons from newborn mice. The conditions noted are these: 20 μM fluoxetine. The method, then: A, Cultured pyramidal neuron from hippocampus, with on top, the patch-clamp pipette. Neurons were chosen according to their morphology. B, Current recorded in response to ramps of potential obtained in the various conditions indicated (aa: arachidonic acid: 10 μM, Spadin: 1[…]μM, Fluoxetine: 20 μM). Neurons were recorded in the whole-cell configuration of the patch-clamp technique. In voltage-clamp, ramps of potential from −90 mV to 70 mV were applied every 10 sec. The % variation of the current amplitude was always measured at −50 mV. The currents were recorded in response to such ramps in control conditions and in the presence of a cocktail of potassium blockers suitable to isolate the TREK currents (10 mM tetraethyl ammonium (TEA), 3 mM 4-aminopyridine (4-AP), 50 nM charybdotoxin, 10 μM glibenclamide, 100 nM apamin). […] The blocks were reversible. C, Time course of spadin and fluoxetine effects. Applications are indicated by the horizontal bars.
Cortical neurons were prepared from 14 old mouse embryos whereas hippocampal neurons were prepared from new born mice. Briefly, dissected brain areas were dissociated and neurons were plated on polylysine-treated 35 or 60 mm dishes and maintained in culture in Neurobasal medium supplemented with B27, Glutamax and antibiotics for 2 to 3 weeks before to be used for electrophsysiological or biochemical experiments.

In assay [10] the target is NTSR3/Sortilin (endogenous, C13NJ microglial cell line). As to the kind of experiment: competition with 0.2 nM 125I-NT on C13NJ cell homogenates, filtration.
For assay [11], the target named is TREK-1 channel (expressed by transfection in COS-7 cells). Briefly: cell-based or functional assay.
The target of assay [12] is NTSR3/Sortilin (endogenous, C13NJ microglial cell line). As to the kind of experiment: cell-based or functional assay.
The target of assay [13] is TREK-1 channel (expressed by transfection in COS-7 cells). As to the kind of experiment: competition with 0.2 nM 125I-spadin on TREK-1 transfected COS-7 cell homogenates, filtration.

TREK-1 channel (expressed by transfection in COS-7 cells), sequence (O95069 whole entry): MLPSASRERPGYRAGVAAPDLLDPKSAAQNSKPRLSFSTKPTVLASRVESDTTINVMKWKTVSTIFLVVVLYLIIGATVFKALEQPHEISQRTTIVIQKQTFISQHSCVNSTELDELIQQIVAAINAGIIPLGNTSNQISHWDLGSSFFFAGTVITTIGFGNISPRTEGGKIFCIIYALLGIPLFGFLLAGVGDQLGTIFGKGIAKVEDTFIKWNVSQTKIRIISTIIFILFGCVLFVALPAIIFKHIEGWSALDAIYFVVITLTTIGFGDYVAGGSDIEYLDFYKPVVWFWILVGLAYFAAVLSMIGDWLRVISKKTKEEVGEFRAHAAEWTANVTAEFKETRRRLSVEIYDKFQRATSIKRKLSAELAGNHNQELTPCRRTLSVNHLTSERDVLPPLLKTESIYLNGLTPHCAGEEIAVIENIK
NTSR3/Sortilin (endogenous, C13NJ microglial cell line), sequence (Q99523 78-831): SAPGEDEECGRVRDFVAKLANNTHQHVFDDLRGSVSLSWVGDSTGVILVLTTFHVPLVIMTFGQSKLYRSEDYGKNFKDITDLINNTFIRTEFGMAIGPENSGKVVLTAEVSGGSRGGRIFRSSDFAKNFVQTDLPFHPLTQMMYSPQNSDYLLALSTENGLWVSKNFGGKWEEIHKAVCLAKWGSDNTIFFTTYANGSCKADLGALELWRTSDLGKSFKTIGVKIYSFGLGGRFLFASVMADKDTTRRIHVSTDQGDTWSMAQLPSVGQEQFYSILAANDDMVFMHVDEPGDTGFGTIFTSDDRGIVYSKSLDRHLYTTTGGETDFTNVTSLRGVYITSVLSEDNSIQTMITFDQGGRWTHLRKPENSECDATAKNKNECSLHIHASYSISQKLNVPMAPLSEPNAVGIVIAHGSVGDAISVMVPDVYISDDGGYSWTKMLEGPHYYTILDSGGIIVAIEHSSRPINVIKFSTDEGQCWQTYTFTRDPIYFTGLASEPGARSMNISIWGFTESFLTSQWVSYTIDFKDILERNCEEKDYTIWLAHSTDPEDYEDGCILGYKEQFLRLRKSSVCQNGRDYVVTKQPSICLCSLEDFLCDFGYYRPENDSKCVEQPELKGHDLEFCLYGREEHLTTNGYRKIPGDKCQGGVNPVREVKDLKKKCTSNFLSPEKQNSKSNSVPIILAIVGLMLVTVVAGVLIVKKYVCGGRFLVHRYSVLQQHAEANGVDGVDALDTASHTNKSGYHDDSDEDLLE

For “QDRLDAPPPPAAPLPR [N-terminal fragment Gln1-Arg16, reference compound]”, the “inhibition of current increase induced by 10 μM aa” value at TREK-1 [1] is on record as “unable to inhibit”. In addition, the Kd on TREK-1 [2] is 1000 nM.

For the molecule `CNCCC(Oc1ccc(C(F)(F)F)cc1)c1ccccc1` (stereo not shown) [fluoxetine, Fluoxetine, reference compound], in the assay on mice [3], the “latency to feed versus saline” value is “had no effect”. Further, in the assay with mice [4], the “reduction of stress-induced increase in corticosterone levels versus saline” value came to 59.1%. At TREK-1 [5], the “inhibition of the current recorded in presence of potassium blockers, substance alone” value came out at 13.0 ± 3.8%. Moreover, the “number of BrdU-positive cells in the SGZ versus saline” value in assay [6] (4-day treatment, spadin i.p. 10^-5 M) is “had no effect”. Also, in assay [6] (15 days), the “number of BrdU-positive cells versus saline” value is reported as “significant increase”. The “reduction of time of immobility” value in the assay with mice [7] (chronic, 15 days, spadin 10^-6 M, fluoxetine 1 mg/kg) is reported as “around 30%”. Besides, the “reduction of time spent immobile” value is reported as “had no effect; also recorded: without effect” with mice [7] (subchronic, 4 days, spadin i.v. 10^-6 M, fluoxetine 3 mg/kg) and “had no effect; also recorded: without effect” in the assay on mice [8]. The “block of arachidonic acid evoked current (putative TREK current)” value on TREK-1 [9] is reported as “fully blocked”.

Turning to APLPRWSGPIGVSWGLR [spadin], in [10], the affinity was 8 nM. In assay [11], this molecule displayed an IC50 of dose-dependent inhibition of TREK-1 current at 0 mV of 70.7 nM and a block of arachidonic acid-stimulated TREK-1 current (whole-cell patch clamp, transfected COS-7 cells, 100 nM spadin) of 63%. Moreover, the C13NJ cell migration induced by 10 nM NT in the presence of 1 µM spadin (% of migration with 10% FCS) in [12] came out at 6.2%. The molecule also showed an affinity in assay [13] of 10 nM.
